Publication PMC11943946, “Anti-Neuroinflammatory Eremophilane Sesquiterpenoids from Marine-Derived Fungus Phoma sp. DXH009” (Marine Drugs, 2025)

Tests used:
[1] = test system: early-stage PD participants; design: method as in PMID 38504306; conditions: Phase II trial NCT04542915; cited from earlier work
APP/PS1 transgenic mice = test system: APP/PS1 transgenic mice; design: method as in PMID 39004599, PMID 25686105; conditions: cited from earlier work
[2] = test system: LPS-stimulated microglia BV2 cells; experiment: Cellular NO production in LPS-stimulated BV2 microglia; format: cell-based; conditions: for NO inhibition (SAR statement) / reduction in NO content: 20 μM; for NO inhibition (SAR statement): relative to analogues with intact C-6–C-7 / C-11–C-12 motifs; for reduction in NO content: vs LPS control cells
Protocol: (§1) The cellular NO levels were determined using a Nitric Oxide Assay Kit with DAF-FM DA (Beyotime, Nantong, China). A total of 5000 cells were planted in 96-well plates and maintained for 24 h. Then, they were induced with 1 μg/mL lipopolysaccharide (LPS) in the presence or absence of compounds at a final concentration of 20 μM for 24 h. Untreated wells were used as control. Then, supernatant of the culture medium was investigated with a Nitric Oxide Assay Kit with DAF-FM DA (Beyotime, S0020S) per the manufacturer’s instruction. Cells were stained with 2 µM hochest 33,342 at room temperature for 10 min, then cell numbers were auto-counted using the high-content screening system. The cell number in the LPS control group was set as 100%, and the relative cell survival ratios were calculated.

[3] = test system: LPS-activated BV-2 microglia; design: method as in PMID 34605647; conditions: read-out: IC50 suppressing nitric oxide production; cited from earlier work
LPS-treated mice = experiment: LPS-induced neuroinflammation mouse model (cortex and hippocampus); format: in vivo; conditions: intraperitoneal; for expression levels of IBA1 in cortex / inflammatory markers iNOS, COX2, IL-1β, IL-6 in cortex (mRNA and protein) / protein level of ARG 1 in cortex: 5 at 10, 20, 40 mg/kg or Dex 15 mg/kg
Protocol: (§2) Cells or tissues were lysed with RIPA lysis buffer containing protease and phosphatase inhibitor cocktail and total protein was extracted and quantified by using a protein determination kit (Thermo Fisher Scientific, Cat#23227, Beijing, China). Protein samples were prepared by centrifugation at the speed of 12,000× g for 30 min at 4 °C; the supernatant was boiled at 95 °C for 10 min and then subjected to SDS-PAGE. An amount of 15 µg of total protein was separated by electrophoresis in a 10% SDS-polyacrylamide gel and transferred to a PVDF membrane (Thermo Fisher Scientific, Cat#88520, Beijing, China). After blocking, the full membranes were cropped according to the molecular weight of examined proteins and incubated with antibodies at 4 °C overnight. The used antibodies were listed as follows: anti-iNOS (Abcam, ab178945, Cambridge, UK), anti-COX2 (Affinity, AF7003, Changzhou, China), anti-actin (Affinity Biosciences, AF7018, Changzhou, China), anti-ARG1 (Proteintech, 66129, Wuhan, China), anti-IL-1β (Proteintech, 26048, Wuhan, China), anti-GAPDH (Bioss, bs-41373R, Beijing, China), anti-IL-6 (Affinity, DF6087, Changzhou, China), anti-TNFα (Affinity, AF7014, Changzhou, China), anti-IBA1 (Affinity, DF6442, Changzhou, China). The membranes were washed to remove unbound antibodies and then incubated with HRP-conjugated secondary antibodies at room temperature for 45 min. Protein bands were visualized one by one with an ECL kit (Millipore, Cat#6-201BP, Beijing, China). The uncropped immunoblot data were uploaded as a Supplementary File. Densitometry analysis was performed using Image J Software, Version 1.54p (Rawak Software Inc., Stuttgart, Germany) relative to the loading control, β-actin; GAPDH; or tubulin. The average protein levels of control group cells or control mice from each independent experiment or mice were set as 1, and relative changes were calculated.
Male, 4-week-old C57BL/6J mice were obtained from Peking SiPeiFu Biotechnology Co., Ltd. (Beijing, China), with quality certificate number No.110324241107423512. After acclimation, mice were weighted and divided randomly into 6 groups, including control, LPS control mice, LPS + dexamethasone (Dex, 15 mg/kg), and LPS + HN-005 (10, 20, 40 mg/kg). Mice were intraperitoneally injected with dexamethasone or compound 5 for 2 days, while the control and LPS control group was intraperitoneally injected with an identical volume of 200 μL 0.9% saline. A total of 6 mg/kg LPS was intraperitoneally injected on the second day beyond the control group. After treatment, the mice were weighed and euthanized for brain anatomy.
Mice were anesthetized and their chest dissected to expose the heart sufficiently. The infusion needle penetrated the ventriculus sinister by about 0.5 cm and perfused it with 40 mL sterile PBS buffer until the liver turned white. Then, the prefrontal cortex and hippocampus were separated and preserved. For the immunochemistry assay, the cortex and hippocampus were fixed at 4% PFA at room temperature for 2–4 days. The fixed brain was embedded into paraffin and sectioned at 5 μm in the coronal plane using a sliding microtone (Leica, CM1950, Weztlar, Germany), then blocked with 5% goat serum TBS buffer at room temperature for one hour. After blocking, tissue slides were incubated with the first antibody against IBA1 (Affinity, DF6442, Changzhou, China) at 4 °C for 16 h, then rinsed with TBST three times and incubated with Alex flour 555 conjugated goat anti-rabbit secondary antibody (1:500) and DAPI (1:1000) at 4 °C overnight. A section incubated only with the secondary antibody was used as a negative control. For HE staining, the section was stained with an H&E staining kit (Servicebio, G1076, Wuhan, China) per the manufacturer’s instruction. Fluorescence images were acquired using a confocal microscope (Olympus, Tokyo, Japan). […]

BV2 microglial cells = experiment: BV2 cell viability / proliferation (CCK-8, cell count); format: cell-based; conditions: 20 µM
Protocol: as §1
(§3) BV2 microglial cells were seeded into 96-well plates at a density of 1 × 10^4 cells/well and allowed to adhere for 24 h. Cells were then exposed to different concentrations (20 μM for 1–9; 0, 1, 5, 10, 20, 50, 100 μM for 5) of the test compounds (1–9) in triplicate, with DMSO concentrations normalized across all treatment groups. After 24 h incubation, 10 μL CCK-8 reagent (Beyotime Biotechnology, Nantong, China) was added to each well, followed by 30 min incubation at 37 °C. Absorbance at 450 nm was quantified using a BioTek microplate reader (BioTek, Winooski, VT, USA), with cell viability calculated relative to vehicle-treated controls.

[4] = test system: LPS-treated BV2 microglia cells; experiment: Inflammatory markers in LPS-treated microglia cells (Western blot); format: cell-based; conditions: 2.5, 5, 10 μM
Protocol: as §2, with “The membranes were washed to remove unbound antibodies and then incubated with HRP-conjugated secondary antibodies at room temperature for 45 min. Protein bands were visualized one by one with an ECL kit (Millipore, Cat#6-201BP, Beijing, China). The uncropped immunoblot data were uploaded as a Supplementary File. Densitometry analysis was performed using Image J Software, Version 1.54p (Rawak Software Inc., Stuttgart, Germany) relative to the loading control, β-actin; GAPDH; or tubulin.” left out

Echinochloa crus-galli = test system: Echinochloa crus-galli; design: method as in PMID 25603174; conditions: read-out: IC50 herbicidal effect (radicle growth); cited from earlier work
NF-κB p65 = NF-κB p65 signaling pathway (Western blot); format: cell-based; conditions: 2.5, 5, 10 μM, LPS-treated BV2 cells
Protocol: as §2, with “The membranes were washed to remove unbound antibodies and then incubated with HRP-conjugated secondary antibodies at room temperature for 45 min. Protein bands were visualized one by one with an ECL kit (Millipore, Cat#6-201BP, Beijing, China). The uncropped immunoblot data were uploaded as a Supplementary File. Densitometry analysis was performed using Image J Software, Version 1.54p (Rawak Software Inc., Stuttgart, Germany) relative to the loading control, β-actin; GAPDH; or tubulin.” left out

Lactuca sativa = test system: Lactuca sativa; design: method as in doi:10.1584/jpestics.14.223; conditions: 250 ppm; cited from earlier work
[5] = test system: LPS-treated BV2 microglia cells; experiment: Microglia polarization markers ARG 1 and iNOS (immunofluorescence, immunoblot); format: cell-based; conditions: 2.5, 5, 10 μM, LPS 0.5 μg/mL, 24 h
Protocol: Cells or tissues were lysed with RIPA lysis buffer containing protease and phosphatase inhibitor cocktail and total protein was extracted and quantified by using a protein determination kit (Thermo Fisher Scientific, Cat#23227, Beijing, China). Protein samples were prepared by centrifugation at the speed of 12,000× g for 30 min at 4 °C; the supernatant was boiled at 95 °C for 10 min and then subjected to SDS-PAGE. An amount of 15 µg of total protein was separated by electrophoresis in a 10% SDS-polyacrylamide gel and transferred to a PVDF membrane (Thermo Fisher Scientific, Cat#88520, Beijing, China). After blocking, the full membranes were cropped according to the molecular weight of examined proteins and incubated with antibodies at 4 °C overnight. […] The average protein levels of control group cells or control mice from each independent experiment or mice were set as 1, and relative changes were calculated.
For the immunofluorescence assay, cells were fixed with pre-cold ethanol at –20 °C, then blocked and incubated with anti-iNOS (Abcam, ab178945) and mouse anti-ARG 1 (Proteintech, 66129) at 4 °C overnight. […] Fluorescence images were acquired using a confocal microscope (Olympus, Tokyo, Japan).

Ehrlich carcinoma cells = test system: Ehrlich carcinoma cells; design: method as in doi:10.1007/s10600-014-0836-9; conditions: cited from earlier work
[6] = test system: Amaranthus hypochondriacus; design: method as in PMID 25603174; conditions: read-out: IC50 herbicidal effect (radicle growth); cited from earlier work
[7] = BV2 cell viability / proliferation (CCK-8, cell count); format: cell-based; conditions: mouse; BV2 cells, 24 h; read-out: IC50 against BV2 cell proliferation (cytotoxicity)
Protocol: as §1, §3

Vero cells = test system: Vero cells; design: method as in PMID 25734623; conditions: noncancerous Vero cells; read-out: IC50 toxicity; cited from earlier work
NF-κB signaling = test system: NF-κB signaling; design: method as in PMID 38616356, PMID 31590042; conditions: BV2 microglia; read-out: IC50 suppressing NF-κB signaling; cited from earlier work
AD mice = test system: AD mice; design: method as in PMID 38616356, PMID 31590042; conditions: relative to untreated AD mice; cited from earlier work

Oc1ccc(/C=C/c2cc(O)cc(O)c2)cc1 [Resveratrol]
reduction in CSF TNF-α levels [1]: 31.6%

CC(C)(O)c1coc(S(=O)(=O)NC(=O)Nc2c3c(cc4c2CCC4)CCC3)c1 [MCC950]
attenuation of hippocampal IL-1β production (APP/PS1 transgenic mice): 68.5%

CC1C(O)CCC2=CC(=O)C(C(C)(C)O)=CC21C (stereo not shown) [Compound 2, Phomenone D]
NO inhibition (SAR statement) [2]: high reduction in NO inhibition

C=C1CO[C@@]2(O)CC3=CC(=O)C(O)=C(C)[C@@]3(C)C[C@@]12O [septoreremophilane F]
IC50 [3]: 12 ± 0.32 µM

C[C@@H]1C[C@H]2[C@@H]3CCC4=CC(=O)C=C[C@]4(C)[C@@]3(F)[C@@H](O)C[C@]2(C)[C@@]1(O)C(=O)CO [Dex, dexamethasone, reference compound]
expression levels of IBA1 in cortex (LPS-treated mice): markedly decreased the expression levels of IBA1 | inflammatory markers iNOS, COX2, IL-1β, IL-6 in cortex (mRNA and protein) (LPS-treated mice): efficiently suppressed the activation of these inflammatory markers | protein level of ARG 1 in cortex (LPS-treated mice): no induction effect was observed | reduction in NO content ([2]; 24 h): 77%

C=C(C)[C@@H]1C[C@@]2(C)C(=CC1=O)CC[C@@H](O)[C@@H]2C [Compound 8, petasol]
proliferation inhibition (cytotoxicity) (BV2 microglial cells): 35–85%

C=C(C)[C@]1(O)C[C@@]2(C)C(=CC1=O)CC[C@@H](O)[C@@H]2C [Compound 3, Hydroxypetasol]
NO inhibition (SAR statement) [2]: high reduction in NO inhibition

C=C(C)[C@@]12O[C@@H]1[C@@]1(C)C(=C[C@@H]2O)CC[C@@H](O)[C@@H]1C [Compound 5, dihydrosporogen AO-1]
level of inflammatory markers IBA1, COX-2, TNF-α, IL-1β, IL-6 [4]: efficiently reversed the increases in the level of inflammatory markers | IC50 (Echinochloa crus-galli): 300 µM | activation of NF-κB axis (phosphorylated NF-κB p65) (NF-κB p65): dose-dependently reversed the activation of the NF-κB axis | total level of NF-κB p65 (NF-κB p65): no major change | expression levels of IBA1 in cortex (LPS-treated mice): markedly decreased the expression levels of IBA1 | inflammatory markers iNOS, COX2, IL-1β, IL-6 in cortex (mRNA and protein) (LPS-treated mice): efficiently suppressed the activation of these inflammatory markers | protein level of ARG 1 in cortex (LPS-treated mice): dose-dependently increased the protein level of ARG 1 | neuroinflammation in hippocampus tissue (LPS-treated mice; 10, 20, 40 mg/kg): inhibits neuroinflammation in the hippocampus tissue | inhibition (radicle growth) (Lactuca sativa): 70% | iNOS and ARG 1 protein levels [5]: dose-dependently reversed iNOS elevations and ARG 1 | ratio of ARG 1 to iNOS [5]: corrected the decreased ratio of ARG 1 to iNOS | ED50 cytotoxicity (Ehrlich carcinoma cells): 400 µM | IC50 [6]: 170 µM | reduction in NO content ([2]; 24 h): 78% | EC50 ([2]; Mus musculus, BV-2, LPS-treated BV2 microglial cells, 24 h, read-out: EC50 in decreasing cellular NO production): 3.11 µM | selectivity index (SI) ([2]; cytotoxicity IC50 vs NO EC50, BV2 cells): 12.2 | IC50 [7]: 38 µM | IC50 (Vero cells): 24000 µM

C=C(C)C1=C[C@@]2(C)C(=CC1=O)CC[C@@H](O)[C@@H]2C [Compound 9, 6-dehydropetasol]
proliferation inhibition (cytotoxicity) (BV2 microglial cells): 35–85%

COc1cc(/C=C/C(=O)CC(=O)/C=C/c2ccc(O)c(OC)c2)ccc1O [curcumin]
IC50 (NF-κB signaling): 4.7 µM | improvement in radial arm maze errors (AD mice): 37.2%
